The values that follow come from patent publication US10758522B2, “Small molecule analogs of the nemo binding peptide” (THE SCRIPPS RESEARCH INSTITUTE, priority 2015, dated 2020).

Molecules are shown by their SMILES. “Also recorded” adds a separate entry of the source.

One assay deals with p-IκBα. In words: Western blot of IκBα phosphorylation after TNF-α. It counts as cell-based. Conditions: 10 ng/ml TNF-α, 0, 5 and 10 min, 100 μM compound. Here is the method:
To confirm that the NBD mimetics reduce IKK activity, the extent of phosphorylation of the IKK target, IκBα, in response to 10 ng/ml of TNF-α was determined by Western blot at 0, 5 and 10 min after TNF-α stimulation. […] To determine if the mimetics also reduce NF-κB DNA binding activity, electrophoretic mobility shift assay (EMSA) was conducted both in vivo and in vitro.
HEK293 cells grown in a 6-well plate at 1×10^6 cells/well were left untreated or treated with 100 μM of ZINC12909780 or ZINC3369392 for 30 min, followed by 10 ng/ml of TNFα for 0, 5 and 10 min. Cells were then harvested for western blot. Cell lysate was prepared in RIPA buffer (20 mM Tris-HCl (pH 7.5), 150 mM NaCl, 1 mM Na^2EDTA, 1 mM EGTA, 1% NP-40, 1% sodium deoxycholate, 2.5 mM sodium pyrophosphate, 1 mM beta-glycerophosphate, 1 mM Na3VO4, 1 μg/ml leupeptin, 1× protease inhibitor cocktails (sigma) and 1× Halt phosphatase inhibitor cocktail (Thermo)). 30 ug of protein was resolved by MINI-PROTEAN TGX 4-15% SDS-PAGE. Blots were blocked in 5% non-fat milk. Primary antibodies were incubated at 4° C. overnight and secondary antibodies were incubated at room temperature for 1 hour. Anti-p-IκBα (1:1000 CST) and anti-IκBα (1:2000 CST) were used to assess NF-κB activation. Anti-GAPDH (1:5000 CST) was used as a loading control.
Background: A western blot detects proteins with antibodies after separation by electrophoresis.

Another assay has as its system IKKβ-NEMO interaction. In words: Immunoprecipitation of NEMO and IKKβ immunoblot in Raw 264.7 macrophages and HEK293 cells. Conditions: Raw 264.7 macrophages / HEK293; mimetics 100 μM, 8K-NBD 400 μM. It counts as cell-based. Here is the method:
The NBD mimetics reduce the interaction between IKKg (NEMO) and IKKß. The indicated concentrations of the drugs were added to HEK 293 or Raw 264.7 cells and cell extracts prepared 30 minutes later. Following immunoprecipitation (IP) of NEMO, the Western was probed for IKKß.
After treatment with the mimetics or NBD peptide, NEMO was immunoprecipitated by an anti-NEMO antibody and IKKβ was immunoblotted to determine the binding of IKKβ to NEMO.
HEK293 or Raw264.7 cells were seeded at 1×10^6 cells/well in 6-well plates and treated with vehicle, small molecule or NBD peptide for indicated time. Cells were lysed in NP-40 lysis buffer supplemented with 1× protease inhibitor cocktails (sigma). Protein was immunoprecipitated by incubating 150 μg of lysate with 1 μg of anti-NEMO antibody (Santa Cruz) on a rotating shaker at 4° C. for 4 hrs, followed by incubation with 20 ul of Protein A agarose beads (ThermoFisher) for 1 hr. Beads were washed in NP40 buffer 3 times and PBS once. Protein was then denatured in SDS-sample buffer and resolved by MINI-PROTEAN TGX 4-15% SDS-PAGE. Anti-IKKβ (1:1000 CST) was used to assess binding of IKKβ to NEMO and anti-NEMO (1:1000 CST) or IgG were used to as a loading control.

The test system of another assay is NF-κB target genes. The assay is described as follows: LPS-induced systemic endotoxemia / acute lung inflammation, qRT-PCR of NF-κB target genes. It counts as in vivo, mice. Conditions: 10 mg/kg. The protocol:
SR12343 and SR12460 initially were tested in an acute model of LPS-induced systemic endotoxemia to determine their NF-κB inhibitory effects in vivo. C57BL/6J mice were pretreated with vehicle control, 8K-NBD peptide or NBD mimetics at 10 mg/kg for 30 min, followed by LPS induction at 10 mg/kg. Lung and liver were harvested 2-4 hr post-treatment for qRT-PCR analysis of NF-κB target genes.
LPS (strain O111:B4) was prepared in PBS at a sub-lethal dose of 10 mg/kg. 8-10 weeks old female WT mice (20-30 g) were dosed i.p. with vehicle, NBD peptide (10 mg/kg) or small molecules (10 mg/kg) for 30 min and followed by i.p. injection of saline (1 ml/kg) or LPS (10 mg/kg). Mice were euthanized 2-4 hr post-treatment and lung was collected for further analysis.
Snap frozen tissues were preserved in RNAlater RNA stabilization solution (ThermoFisher) before processed. Total RNA was extracted from cells or tissues using TRIZOL reagent (Life Technologies) and 1500 ng of messenger RNA (mRNA) was subjected to synthesize complementary DNA (cDNA) using SuperScript VILO cDNA synthesis kit. qRT-PCR was performed in a StepOnePlus Real-Time PCR system using Platinum SYBR Green qPCR SuperMix-UDG (ThermoFisher). Target gene expression was calculated using the comparative CT method (ΔΔCT) and normalized to an internal control gene Actb (β-actin). Primers used are as follows: Ptgs2 (COX-2) forward: […]; Ptgs2 (COX-2) reverse: […]; Nfkbia (IκBα) forward: […]; Nfkbia (IκBα) reverse: […]; Il1b (IL-1β) forward: […]; Il1b (IL-1β) reverse: […]; Nos2 (iNOS) forward: […]; Nos2 (iNOS) reverse: […]; Tnf (TNF) forward: […]; Tnf (TNF) reverse: […]; Il6 (IL-6) forward: […]; Il6 (IL-6) reverse: […]. Actb (β-actin) forward: […]; Actb (β-actin) reverse: […];
A general note: Real-time PCR tracks product formation cycle by cycle.

The test system of another assay is NF-κB. The assay is described as follows: Dual-luciferase (NF-κB firefly / SV40 Renilla) reporter assay in HEK293 cells. It counts as cell-based. The conditions noted are these: Homo sapiens; inhibition of TNF-α-induced NF-κB activation, HEK293, luciferase assays at 0, 25, 50, 100 and 150 μM, GraphPad. The protocol: Thus seven rounds of structural modification and optimization were performed to improve bioactivity and stability and more than one hundred small molecules were tested (data not shown). […] To minimize the influence of drug toxicity on the screening assay, a renilla luciferase reporter driven by the SV40 promoter was cotransfected with the NF-κB luciferase reporter into HEK293 cells as a co-reporter for normalization.
Inhibitory effects of NBD mimetics on NF-κB activation were measured by luciferase assays at multiple concentrations: 0, 25, 50, 100 and 150 μM. IC50 of NBD mimetics was determined based on the dose-dependent curve by using GraphPad.
HEK293 cells grown in 10 cm plates were co-transfected with co-reporter of Renilla plasmid driven by SV40 and luciferase plasmid driven by NF-κB at the ratio of 1:3 with Lipofectamine 2000 (Invitrogen). Transiently transfected HEK293 were grown and treated as described above and subjected to a dual-luciferase reporter assay according to the manufacturer's instruction. Firefly luciferase activity was normalized to Renilla luciferase to get the relative luciferase activity.
For orientation: Reporter assays use an easily measured gene product as a stand-in for the process of interest.

With `Nc1ncccc1C(=O)OCC(=O)Nc1ccc(Cl)cc1F` [NBDA-1, 2-((4-chloro-2-fluorophenyl)amino)-2-oxoethyl 2-aminonicotinate], the “level of phospho-IκBα / phosphorylation of IkB” value with p-IκBα was “reduces the level of phospho-IκB”; with p-IκBα (listed as Zinc-13) it was “reduced phosphorylation of IkB”; in the assay with p-IκBα (listed as compound 12909780), “mild reduction”.
For orientation: IC50 means the concentration that gives 50% inhibition. Higher therefore signals lower potency. For the compound `O=C(CNCCc1cc(F)cc(F)c1)Nc1ccc(Cl)cn1` [SR12460, N-(5-chloropyridin-2-yl)-2-((3,5-difluorophenethyl)amino)acetamide], the “disruption of IKKβ-NEMO interaction (NEMO IP, IKKβ blot)” value in the assay on IKKβ-NEMO interaction is “disruption of the association between NEMO and IKK-β”. For the same compound, the “inhibition of NF-κB/IKK in liver and lung” value in the assay on NF-κB target genes (LPS 10 mg/kg) is recorded as “less potent compared to SR12343”. In the assay with NF-κB, half-maximal inhibition (IC50) was put at 11.2 µM.
For the compound `O=C(CNc1ccc(Cl)cn1)NCCc1cccc(Br)c1` [SR12343, N-(3-bromophenethyl)-2-((5-chloropyridin-2-yl)amino)acetamide], the “disruption of IKKβ-NEMO interaction (NEMO IP, IKKβ blot)” value with IKKβ-NEMO interaction is “strongest activity; also recorded: disruption of the association between NEMO and IKK-β”. Further, the “NF-κB target gene expression in lung (iNOS, IκBα, COX2, IL-6)” value with NF-κB target genes (30 min before LPS 10 mg/kg, 2-4 hr) is “downregulate NF-κB transcriptional activity significantly in lung”. Moreover, in the assay on NF-κB target genes (LPS 10 mg/kg), the “NF-κB target gene expression in liver” value is recorded as “inhibiting only COX2 expression significantly” and the “TNF-α expression in lung” value was “unchanged”.
